The results in this text go back to BindingDB's records for patent US20130102619 (2013).

Broadly, the IC50 is the concentration that inhibits the measured activity by half. A lower IC50 goes with greater potency in that assay.

This test concerns the target T1, Orexin receptor type 2 (Homo sapiens, UniProt O43614).
T1 sequence (O43614 whole entry): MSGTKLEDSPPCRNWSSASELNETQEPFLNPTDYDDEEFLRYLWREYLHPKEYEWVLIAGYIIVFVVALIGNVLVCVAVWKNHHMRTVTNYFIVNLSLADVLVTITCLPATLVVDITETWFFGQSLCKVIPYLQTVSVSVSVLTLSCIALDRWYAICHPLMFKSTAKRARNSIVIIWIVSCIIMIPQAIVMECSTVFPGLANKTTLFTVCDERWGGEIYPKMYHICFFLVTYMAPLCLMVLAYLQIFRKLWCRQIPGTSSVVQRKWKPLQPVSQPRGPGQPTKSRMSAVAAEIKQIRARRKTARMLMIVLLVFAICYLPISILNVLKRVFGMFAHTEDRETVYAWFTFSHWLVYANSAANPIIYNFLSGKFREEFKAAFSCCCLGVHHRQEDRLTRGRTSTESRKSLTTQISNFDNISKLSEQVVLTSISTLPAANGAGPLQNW
Briefly: FLIPR Ca2+ Flux Assay. The following applies: 37 °C. The protocol: Chinese hamster ovary (CHO) cells expressing the rat orexin-1 receptor or the human orexin-2 receptor, are grown in Iscove's modified DMEM containing 2 mM L-glutamine, […], 1% hypoxanthine-thymidine supplement, 100 U/ml penicillin, 100 ug/ml streptomycin and 10% heat-inactivated fetal calf serum (FCS). The cells are seeded at 20,000 cells/well into Becton-Dickinson black 384-well clear bottom sterile plates coated with poly-D-lysine. All reagents were from GIBCO-Invitrogen Corp. The seeded plates are incubated overnight at 37° C. and 5% CO2. Ala-6,12 human orexin-A as the agonist is prepared as a 1 mM stock solution in 1% bovine serum albumin (BSA) and diluted in assay buffer (HBSS containing 20 mM HEPES, 0.1% BSA and 2.5 mM probenecid, pH7.4) for use in the assay at a final concentration of 70 pM. Test compounds are prepared as 10 mM stock solution in DMSO, then diluted in 384-well plates, first in DMSO, then assay buffer. On the day of the assay, cells are washed 3 times with 100 ul assay buffer and then incubated for 60 min (37° C., 5% CO2) in 60 ul assay buffer containing 1 uM Fluo-4AM ester, 0.02% pluronic acid, and 1% BSA. The dye loading solution is then aspirated and cells are washed 3 times with 100 ul assay buffer. 30 ul of that same buffer is left in each well. Within the Fluorescent Imaging Plate Reader (FLIPR, Molecular Devices), test compounds are added to the plate in a volume of 25 ul, incubated for 5 min and finally 25 ul of agonist is added. Fluorescence is measured for each well at 1 second intervals for 5 minutes and the height of each fluorescence peak is compared to the height of the fluorescence peak induced by 70 pM Ala-6,12 orexin-A with buffer in place of antagonist.
Background: Calcium assays in cells follow changes in intracellular calcium, usually with a dye or a luminescent sensor.
In turn, `C[C@@H]1CC[C@@H](Oc2cc(C#N)ccn2)CN1C(=O)c1ccccc1-n1nccn1` [US20130102619, 1] had an IC50 of 12 nM.

Take `C[C@@H]1CC[C@@H](Oc2cc(C#N)ccn2)CN1C(=O)c1ccccc1-c1ncccn1` [US20130102619, 2]: half-maximal inhibition (IC50) was put at 28 nM.

For `Cc1nc(-c2ccccc2C(=O)N2C[C@H](Oc3cc(C#N)ccn3)CC[C@H]2C)no1` [US20130102619, 3], the IC50 was 18 nM.
